# In PubChem BioAssay (NCI):
#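 These data come from cells grown in 96-well plates and exposed to compound for 48 hours at five concentrations. At the GI50, growth is halved. TGI denotes the concentration required for complete inhibition of growth.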
# Key:
# Experiment in all cases: growth of human tumour cells (NCI), 48 h
# MDA-MB-231 breast = system: MDA-MB-231 breast
# IGROV1 ovarian = system: IGROV1 ovarian
# MOLT-4 leukemia = system: MOLT-4 leukemia
# KM12 colon = system: KM12 colon
# HOP-62 NSCLC = system: HOP-62 NSCLC
# DU-145 prostate = system: DU-145 prostate
# SK-MEL-2 melanoma = system: SK-MEL-2 melanoma
# TK-10 renal = system: TK-10 renal
# SF-295 CNS = system: SF-295 CNS
# RXF 393 renal = system: RXF 393 renal
# BT-549 breast = system: BT-549 breast
# OVCAR-4 ovarian = system: OVCAR-4 ovarian
# NCI/ADR-RES ovarian = system: NCI/ADR-RES ovarian
# UACC-257 melanoma = system: UACC-257 melanoma
# A549 NSCLC = system: A549 NSCLC
# PC-3 prostate = system: PC-3 prostate
# MALME-3M melanoma = system: MALME-3M melanoma
# NCI-H23 lung = system: NCI-H23 lung
# NCI-H460 lung = system: NCI-H460 lung
# OVCAR-5 ovarian = system: OVCAR-5 ovarian
# EKVX NSCLC = system: EKVX NSCLC
# UO-31 renal = system: UO-31 renal
# M14 melanoma = system: M14 melanoma
# HL-60(TB) leukemia = system: HL-60(TB) leukemia
# SN12C renal = system: SN12C renal
# U251 CNS = system: U251 CNS
# SK-MEL-28 melanoma = system: SK-MEL-28 melanoma
# MCF7 breast = system: MCF7 breast
# HCT-15 colon = system: HCT-15 colon
# A498 renal = system: A498 renal
# SK-OV-3 ovarian = system: SK-OV-3 ovarian
# SF-268 CNS = system: SF-268 CNS
# NCI-H522 lung = system: NCI-H522 lung
# UACC-62 melanoma = system: UACC-62 melanoma
# HT29 colon = system: HT29 colon
# ACHN renal = system: ACHN renal
# RPMI-8226 leukemia = system: RPMI-8226 leukemia
# SNB-75 CNS = system: SNB-75 CNS
# SW-620 colon = system: SW-620 colon
# CCRF-CEM leukemia = system: CCRF-CEM leukemia
# NCI-H226 lung = system: NCI-H226 lung
# HCT-116 colon = system: HCT-116 colon
# HCC-2998 colon = system: HCC-2998 colon
# 786-0 renal = system: 786-0 renal
# SK-MEL-5 melanoma = system: SK-MEL-5 melanoma
# OVCAR-8 ovarian = system: OVCAR-8 ovarian
# HS 578T breast = system: HS 578T breast
# SF-539 CNS = system: SF-539 CNS
# LOX IMVI melanoma = system: LOX IMVI melanoma
# OVCAR-3 ovarian = system: OVCAR-3 ovarian
# K-562 leukemia = system: K-562 leukemia
# CAKI-1 renal = system: CAKI-1 renal
# T-47D breast = system: T-47D breast
# SR leukemia = system: SR leukemia
# SNB-19 CNS = system: SNB-19 CNS
# HOP-92 NSCLC = system: HOP-92 NSCLC
# COLO 205 colon = system: COLO 205 colon
smiles,measurement,setting,value
COc1ccc(C(=O)c2cc3c(N)c(C(=O)Nc4cccc(Cl)c4)sc3nc2C)cc1,GI50,MDA-MB-231 breast,2.55 µM
same,TGI,MDA-MB-231 breast,> 33.3 µM
same,GI50,IGROV1 ovarian,1.76 µM
same,TGI,IGROV1 ovarian,> 33.3 µM
same,GI50,MOLT-4 leukemia,1.89 µM
same,TGI,MOLT-4 leukemia,> 33.3 µM
same,GI50,KM12 colon,1.25 µM
same,TGI,KM12 colon,> 33.3 µM
same,GI50,HOP-62 NSCLC,2.24 µM
same,TGI,HOP-62 NSCLC,> 33.3 µM
same,GI50,DU-145 prostate,1.26 µM
same,TGI,DU-145 prostate,> 33.3 µM
same,GI50,SK-MEL-2 melanoma,11.2 µM
same,TGI,SK-MEL-2 melanoma,> 33.3 µM
same,GI50,TK-10 renal,> 33.3 µM
same,TGI,TK-10 renal,> 33.3 µM
same,GI50,SF-295 CNS,1.08 µM
same,TGI,SF-295 CNS,> 33.3 µM
same,GI50,RXF 393 renal,0.655 µM
same,TGI,RXF 393 renal,2.08 µM
same,GI50,BT-549 breast,7.69 µM
same,TGI,BT-549 breast,> 33.3 µM
same,GI50,OVCAR-4 ovarian,9.48 µM
same,TGI,OVCAR-4 ovarian,> 33.3 µM
same,GI50,NCI/ADR-RES ovarian,1.49 µM
same,TGI,NCI/ADR-RES ovarian,> 33.3 µM
same,GI50,UACC-257 melanoma,30.7 µM
same,TGI,UACC-257 melanoma,> 33.3 µM
same,GI50,A549 NSCLC,1.67 µM
same,TGI,A549 NSCLC,> 33.3 µM
same,GI50,PC-3 prostate,1.48 µM
same,TGI,PC-3 prostate,> 33.3 µM
same,GI50,MALME-3M melanoma,1.28 µM
same,TGI,MALME-3M melanoma,> 33.3 µM
same,GI50,NCI-H23 lung,2.53 µM
same,TGI,NCI-H23 lung,> 33.3 µM
same,GI50,NCI-H460 lung,1.12 µM
same,TGI,NCI-H460 lung,> 33.3 µM
same,GI50,OVCAR-5 ovarian,1.69 µM
same,TGI,OVCAR-5 ovarian,> 33.3 µM
same,GI50,EKVX NSCLC,2.06 µM
same,TGI,EKVX NSCLC,> 33.3 µM
same,GI50,UO-31 renal,2.5 µM
same,TGI,UO-31 renal,> 33.3 µM
same,GI50,M14 melanoma,1.08 µM
same,TGI,M14 melanoma,> 33.3 µM
same,GI50,HL-60(TB) leukemia,1.09 µM
same,TGI,HL-60(TB) leukemia,> 33.3 µM
same,GI50,SN12C renal,1.96 µM
same,TGI,SN12C renal,> 33.3 µM
same,GI50,U251 CNS,1.38 µM
same,TGI,U251 CNS,> 33.3 µM
same,GI50,SK-MEL-28 melanoma,3.03 µM
same,TGI,SK-MEL-28 melanoma,> 33.3 µM
same,GI50,MCF7 breast,1.25 µM
same,TGI,MCF7 breast,> 33.3 µM
same,GI50,HCT-15 colon,1.32 µM
same,TGI,HCT-15 colon,> 33.3 µM
same,GI50,A498 renal,0.821 µM
same,TGI,A498 renal,> 33.3 µM
same,GI50,SK-OV-3 ovarian,1.58 µM
same,TGI,SK-OV-3 ovarian,> 33.3 µM
same,GI50,SF-268 CNS,2.49 µM
same,TGI,SF-268 CNS,> 33.3 µM
same,GI50,NCI-H522 lung,1.1 µM
same,TGI,NCI-H522 lung,> 33.3 µM
same,GI50,UACC-62 melanoma,1.12 µM
same,TGI,UACC-62 melanoma,> 33.3 µM
same,GI50,HT29 colon,1.2 µM
same,TGI,HT29 colon,> 33.3 µM
same,GI50,ACHN renal,2.12 µM
same,TGI,ACHN renal,> 33.3 µM
same,GI50,RPMI-8226 leukemia,1.19 µM
same,TGI,RPMI-8226 leukemia,> 33.3 µM
same,GI50,SNB-75 CNS,0.743 µM
same,TGI,SNB-75 CNS,2.75 µM
same,GI50,SW-620 colon,1.67 µM
same,TGI,SW-620 colon,> 33.3 µM
same,GI50,CCRF-CEM leukemia,1.2 µM
same,TGI,CCRF-CEM leukemia,> 33.3 µM
same,GI50,NCI-H226 lung,16 µM
same,TGI,NCI-H226 lung,> 33.3 µM
same,GI50,HCT-116 colon,1.45 µM
same,TGI,HCT-116 colon,> 33.3 µM
same,GI50,HCC-2998 colon,1.92 µM
same,TGI,HCC-2998 colon,> 33.3 µM
same,GI50,786-0 renal,2.67 µM
same,TGI,786-0 renal,> 33.3 µM
same,GI50,SK-MEL-5 melanoma,0.92 µM
same,TGI,SK-MEL-5 melanoma,2.6 µM
same,GI50,OVCAR-8 ovarian,1.89 µM
same,TGI,OVCAR-8 ovarian,> 33.3 µM
same,GI50,HS 578T breast,0.957 µM
same,TGI,HS 578T breast,6.62 µM
same,GI50,SF-539 CNS,0.995 µM
same,TGI,SF-539 CNS,3.2 µM
same,GI50,LOX IMVI melanoma,2.39 µM
same,TGI,LOX IMVI melanoma,> 33.3 µM
same,GI50,OVCAR-3 ovarian,1.01 µM
same,TGI,OVCAR-3 ovarian,3.12 µM
same,GI50,K-562 leukemia,1.36 µM
same,TGI,K-562 leukemia,> 33.3 µM
same,GI50,CAKI-1 renal,1.28 µM
same,TGI,CAKI-1 renal,> 33.3 µM
same,GI50,T-47D breast,2.52 µM
same,TGI,T-47D breast,> 33.3 µM
same,GI50,SR leukemia,1.15 µM
same,TGI,SR leukemia,> 33.3 µM
same,GI50,SNB-19 CNS,1.46 µM
same,TGI,SNB-19 CNS,> 33.3 µM
same,GI50,HOP-92 NSCLC,30.7 µM
same,TGI,HOP-92 NSCLC,> 33.3 µM
same,GI50,COLO 205 colon,1.67 µM
same,TGI,COLO 205 colon,> 33.3 µM
